The test system of assay [1] is BRD2. The experiment in a line: Cellular degradation assay, eGFP-BRD2BD1/BRD2BD2 mCherry reporters in Flip-In 293 cells. In kind it is cell-based. To be noted: BRD2BD1 and BRD2BD2 reporters, 5 h; compound 2 active via BRD2BD2. How it is done: (§1) IKZF1 (construct IKZF1^Δ1-82/Δ197-238/Δ256-519) BRD2BD1, BRD2BD2, BRD3BD1, BRD3BD2, BRD4BD1, and BRD4BD2 were subcloned into mammalian pcDNA5/FRT Vector (Ampicillin and Hygromycin B resistant) modified to contain MCS-eGFP-P2A-mCherry. Stable cell lines expressing eGFP-protein fusion and mCherry reporter were generated using Flip-In 293 system. Plasmid (0.3 μg) and pOG44 (4.7 μg) DNA were preincubated in 100 μL of Opti-MEM I (Gibco™ Life Technologies™) media containing 0.05 mg/ml Lipofectamine 2000 (Invitrogen™) for 20 min and added to Flip-In 293 cells containing 1.9 ml of DMEM media (Gibco™, Life Technologies™) per well in a 6-well plate format (Falcon®, 353046). […] Titrated compounds were incubated with cells for 5 h following trypsinisation and resuspension in DMEM media, transferred into 96-well plates (353910, Falcon®) and analyzed by flow cytometer (Guava© easyCyte HT, Millipore™) Signal from 5000 cells per well was acquired in singlicate or duplicate and the eGFP and mCherry florescence monitored. Data was analyzed using FlowJo® (FlowJo®, LCC). Forward and side scatter outliers, frequently associated with cell debris, were removed leaving >90% of total cells, followed by removal of eGFP and mCherry signal outliers, leaving 88-90% of total cells creating the set used for quantification. […]

The test system of assay [2] is BRD3. The assay is described as follows: Cellular degradation assay, eGFP-BRD3BD1/BRD3BD2 mCherry reporters in Flip-In 293 cells. In kind it is cell-based. To be noted: BRD3BD1 and BRD3BD2 reporters, 5 h; both compounds active via BD1 and BD2. How it is done:
as §1

Assay [3] deals with BRD4. The assay is described as follows: Cellular degradation assay, eGFP-BRD4BD1/BRD4BD2 mCherry reporters in Flip-In 293 cells. As to conditions: BRD4BD1 and BRD4BD2 reporters, 5 h; compound 2 via BD1 and BD2, compound 1 via BD1. The assay is classed as cell-based. How it is done: as §1
Assay [4] concerns bromodomain proteins BRD2, 3 and 4. The experiment in a line: Change of cellular protein abundance (TMT quantitative proteomics) in Kelly cells. As to conditions: 1 μM, 6 hours, compared to DMSO control. The assay is classed as cell-based, human. How it is done:
Kelly cells were treated with DMSO control (biological triplicates) or 1 μM of inventive compound 1 or compound 2 for 6 hours (biological singlicate). Lysis buffer (8 M Urea, 50 mM NaCl, 50 mM 4-(2hydroxyethyl)-1-piperazineethanesulfonic acid (EPPS) pH 8.5, Protease and Phosphatase inhibitors from Roche) was added to the cell pellets and homogenized by 20 passes through a 21 gauge (1.25 in. long) needle to achieve a cell lysate with a protein concentration between 1-4 mg mL^−1. A Micro BCA™ assay (Pierce™) was used to determine the final protein concentration in the cell lysate. 200 μg of protein for each sample were reduced and alkylated as previously described.
Proteins were precipitated using methanol/chloroform/water (4:1:3). In brief, four volumes of methanol were added to the cell lysate, followed by one volume of chloroform, and finally three volumes of water. The mixture was vortexed and centrifuged to separate the chloroform phase from the aqueous phase. The precipitated protein was washed with three volumes of methanol, centrifuged and the resulting washed precipitated protein was allowed to air dry. Precipitated protein was resuspended in 4 M Urea, 50 mM 4-(2-hydroxyethyl)-1-piperazineethanesulfonic acid (HEPES) pH 7.4, followed by dilution to 1 M urea with the addition of 200 mM EPPS, pH 8. Proteins were first digested with LysC (1:50; enzyme:protein) for 12 hours at room temperature. The LysC digestion was diluted to 0.5 M Urea with 200 mM EPPS pH 8 followed by digestion with trypsin (1:50; enzyme:protein) for 6 hours at 37° C. Tandem mass tag (TMT) reagents (Thermo Fisher Scientific) were dissolved in anhydrous acetonitrile (ACN) according to manufacturer's instructions. Anhydrous ACN was added to each peptide sample to a final concentration of 30% v/v, and labeling was induced with the addition of TMT reagent to each sample at a ratio of 1:4 peptide:TMT label. The 10-plex labeling reactions were performed for 1.5 hours at room temperature and the reaction quenched by the addition of hydroxylamine to a final concentration of 0.3% for 15 minutes at room temperature. The sample channels were combined at a 1:1:1:1:1:1:1:1:1:1 ratio, desalted using C18 solid phase extraction cartridges (Waters) and analyzed by LC-MS for channel ratio comparison. Samples were then combined using the adjusted volumes determined in the channel ratio analysis and dried down in a speed vacuum. The combined sample was then resuspended in 1% formic acid, and acidified (pH 2-3) before being subjected to desalting with C18 SPE (Sep-Pak®, Waters). […]

Assay [5] concerns the target DDB1ΔB-CRBN (Homo sapiens (Human), UniProt Q96SW2). The assay is described as follows: Atto565-Lenalidomide FP displacement assay (CRBN binding). To be noted: for CRBN binding (in words), IC50 comparable to lenalidomide: FP displacement assay, FIG. 3A-3D; for IC50: FP displacement of 10 nM Atto565-Lenalidomide, 100 nM DDB1ΔB-CRBN, n=3; for Ki: FP displacement of Atto565-Lenalidomide. On the procedure: Compounds in Atto565-Lenalidomide displacement assay were dispensed in a 384-well microplate (Corning, 4514) using D300e Digital Dispenser (HP) normalized to 1% DMSO into 10 nM Atto565-Leanlidomide, 100 nM DDB1ΔB-CRBN, 50 mM Tris pH 7.5, 200 mM NaCl, 0.1% Pluronic® F-68 solution (Sigma). Compound titrations were incubated for 60 min at RT. The change in fluorescence polarization was monitored using a PHERAstar® FS microplate reader (BMG Labtech) for 1 h in 120 s cycles. Data from three independent replicates (n=3) was used to estimate IC50 values using variable slope equation in GraphPad Prism 7.

In assay [6] the test system is MM1.S cells. The experiment in a line: MM1.S cell proliferation. The assay is classed as cell-based. To be noted: Homo sapiens.
Assay [7] has as its target IKZF1 (Homo sapiens (Human), UniProt Q13422+Q96SW2, DEL197-238/DEL256-519). The assay is described as follows: Cellular degradation assay, eGFP-IKZF1/mCherry reporter in Flip-In 293 cells. In kind it is cell-based. As to conditions: 5 h incubation, eGFP/mCherry relative abundance, FIG. 1A-1C. On the procedure: Following 2-3 passage cycle FACS (FACSAria™ II, BD) was used to enrich for cells expressing eGFP and mCherry. […] Data was analyzed using FlowJo® (FlowJo®, LCC). […] The eGFP protein abundance relative to mCherry was then quantified as a ten-fold amplified ratio for each individual cell using the formula: 10×eGFP/mCherry. The median of the ratio was then calculated per set, normalized to the median of the DMSO ratio, and is denoted as relative abundance.

Results on five compounds are retold here after patent publication US12030892B2, “CRBN modulators” (DANA-FARBER CANCER INSTITUTE, INC., priority 2018, dated 2024).

DDB1ΔB-CRBN, sequence (Q96SW2 whole entry, stated change not applied): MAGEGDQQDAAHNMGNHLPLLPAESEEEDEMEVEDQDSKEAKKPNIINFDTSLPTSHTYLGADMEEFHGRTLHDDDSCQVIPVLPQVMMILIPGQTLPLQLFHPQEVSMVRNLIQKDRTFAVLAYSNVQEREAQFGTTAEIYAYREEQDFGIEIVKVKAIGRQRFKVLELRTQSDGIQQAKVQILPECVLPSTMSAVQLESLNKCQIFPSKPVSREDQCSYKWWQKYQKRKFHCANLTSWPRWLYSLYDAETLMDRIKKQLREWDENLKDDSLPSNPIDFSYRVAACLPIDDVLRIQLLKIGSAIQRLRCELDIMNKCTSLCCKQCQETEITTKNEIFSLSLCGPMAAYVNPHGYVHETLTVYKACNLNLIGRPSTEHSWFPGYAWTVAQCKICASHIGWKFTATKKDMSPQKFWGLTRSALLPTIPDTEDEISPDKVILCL

Regarding `COC(=O)C[C@@H]1N=C(c2ccc(Cl)cc2)c2c(sc(C(=O)NCCCCCOc3cc4c5c(cccc5c3)C(=O)N(C3CCC(=O)NC3=O)C4=O)c2C)-n2c(C)nnc21` (stereo partly drawn) [Compound 1, methyl 2-((6S)-4-(4-chlorophenyl)-2-((5-((2-(2,6-dioxopiperidin-3-yl)-1,3-dioxo-2,3-dihydro-1H-benzo[de]isoquinolin-5-yl)oxy)pentyl)carbamoyl)-3,9-dimethyl-6H-thieno[3,2-f][1,2,4]triazolo[4,3-a][1,4]diazepin-6-yl)acetate], in assay [1], the “degradation activity against BRD2 (in words)” value is “inactive”. Moreover, the “degradation activity against BRD3 (in words)” value in assay [2] is recorded as “active”. Moreover, in assay [3], the “degradation activity against BRD4 (in words)” value is listed as “active”. For the same compound, in assay [4], the “change in relative abundance of endogenous bromodomain proteins (in words)” value is on record as “downregulation of bromodomain proteins BRD4” and the “degradation of common IMiD-dependent off-targets (in words)” value was “did not induce degradation”.

As to `Cc1sc2c(c1C)C(c1ccc(Cl)cc1)=N[C@@H](CC(=O)NCCCCCCCCNC(=O)COc1cc3c4c(cccc4c1)C(=O)N(C1CCC(=O)NC1=O)C3=O)c1nnc(C)n1-2` (stereo partly drawn) [Compound 2, 2-((S)-4-(4-chlorophenyl)-2,3,9-trimethyl-6H-thieno[3,2-f][1,2,4]triazolo [4,3-a][1,4]diazepin-6-yl)-N-(8-(2-(2-(2,6-dioxopiperidin-3-yl)-1,3-dioxo-2,3-dihydro-1H-benzo[de]isoquinolin-5-yloxy)acetamido)octyl)acetamide], the “degradation activity against BRD2 (in words)” value in assay [1] was “active”. In assay [2], the “degradation activity against BRD3 (in words)” value was “active”. Moreover, the “degradation activity against BRD4 (in words)” value in assay [3] is “active”. Besides, in assay [4], the “change in relative abundance of endogenous bromodomain proteins (in words)” value was “downregulation of bromodomain proteins BRD2, 3 and 4”; the “degradation of common IMiD-dependent off-targets (in words)” value was “did not induce degradation”.

On to `O=C1CCC(N2C(=O)c3cccc4cccc(c34)C2=O)C(=O)N1` (centres unmarked) [Compound 9, 2-(2,6-dioxopiperidin-3-yl)-1H-benzo[de]isoquinoline-1,3(2H)-dione], for which, in assay [5], the “CRBN binding (in words), IC50 comparable to lenalidomide” value (“CRBN binding (in words)” below) is “potent binders of CRBN”; the half-inhibitory concentration (IC50) is 2.6 µM; affinity was put at a Ki of 0.7 µM. The concentration for half-maximal inhibition (IC50) in assay [6] was about 21.5 µM. In addition, in assay [7], the “activity against the target IKZF1 (degradation, in words)” value (“activity against the target IKZF1” for short) is “inactive”.

As to `O=C1CCC(N2C(=O)c3cccc4cc(O)cc(c34)C2=O)C(=O)N1` (centres unmarked) [Compound 10, 2-(2,6-dioxopiperidin-3-yl)-5-hydroxy-1H-benzo[de]isoquinoline-1,3(2H)-dione], in assay [5], the “CRBN binding (in words)” value is “potent binders of CRBN”; the IC50 came to 3.5 µM; the Ki is 0.98 µM. Moreover, in assay [7], the “activity against the target IKZF1” value was “inactive”.

`Nc1cc2c3c(cccc3c1)C(=O)N(C1CCC(=O)NC1=O)C2=O` (centres unmarked) [Compound 11, 5-amino-2-(2,6-dioxopiperidin-3-yl)-1H-benzo[de]isoquinoline-1,3(2H)-dione]: in assay [5], the “CRBN binding (in words)” value is “potent binders of CRBN”; the IC50 came out at 11.4 µM; the Ki is 3.2 µM. Besides, in assay [7], the “activity against the target IKZF1” value is “inactive”.

What is called IC50 is the concentration at which inhibition is half-maximal. By Ki is commonly meant a dissociation constant, usually derived from enzyme kinetics or from competition with a known ligand.
